Experimental data reported in patent US11419918B2, “Treatment of biliary cirrhosis based on oxyntomodulin analogue GLP-1R/GCGR dual-target agonist peptide” (Shenzhen Turier Biotech Co., Ltd., priority 2017, dated 2022).
Numbered stars: 1 amine (or outer) side, 2 acyl side, 3 side chain; on linkers, the order of the positions; unused ones are H or OH. Square brackets hold non-standard residues; d marks the D form. Primed or numbered codes have the meaning given here. Side chains are listed from the residue outwards. Ends that are not written are not given here. * marks the point of attachment. C18 diacid = O=C(O)CCCCCCCCCCCCCCCCC(=O)*; C16 diacid = O=C(O)CCCCCCCCCCCCCCC(=O)*; γGlu = O=C(O)[C@H](CCC(=O)[*:2])N[*:1]; Stearoyl = CCCCCCCCCCCCCCCCCC(=O)*; Palmitoyl = CCCCCCCCCCCCCCCC(=O)*; Nle = CCCC[C@H](N)C(=O)O; PEG2′ = not defined here; Aib = CC(C)(N)C(=O)O

System: human hepatic stellate cells (LX-2)
Assay: In vitro inhibition of hepatic fibrosis: expression of activation marker α-SMA in LX-2 cells (Western Blot, β-actin internal reference)
Format: cell-based
Conditions: 10.0 μM, 48 hours, negative control (PBS) = 100%
Procedure: Hepatic stellate cell strain LX-2 was selected to study and observe the effect of different doses of test substances on the expression of LX-2 cell activation marker α-SMA. Hepatic stellate cell LX-2 was laid on 35 mm cell culture plate, cultured with DMEM (high glucose)+10% FBS+1% double-antibody culture medium (Thermo Fisher), placed overnight when the cells grew to 70% convergence at 37° C. and under the condition of 5% CO2, and treated with the above GLP-1R/GCGR dual target agonist polypeptides 1-48 (dissolved in PBS) for 48 hours the next day morning to extract cell protein, carry out Western Blot, and take β-actin as internal reference and analyze the expression quantities of α-SMA and β-actin by a gray level of Image J 1.50i. PBS with the same volume as that in experimental group was added in negative control. […] The integrating gray level of α-SMA/β-actin in the negative control group was 100% to analyze the in vitro inhibition activity of hepatic fibrosis of tested polypeptide.

Substance | Relative expression of α-SMA (α-SMA/β-actin, %) [%]
His-(D-Ser)-Gln-Gly-Thr-Phe-Thr-Ser-Asp-Tyr-Ser-Lys-Tyr-Leu-Asp-Glu-Lys-Ala-Ala-Lys(PEG2-PEG2-γGlu-CO(CH2)16CH3)-Glu-Phe-Ile-Glu-Trp-Leu-Leu-Asn-Gly-Gly-Pro-Ser-Ser-Gly-Ala-Pro-Pro-Pro-Ser-NH2 (H[dS]QGTFTSDYSKYLDEKAAK([PEG2′-PEG2′-γGlu-Stearoyl])EFIEWLLNGGPSSGAPPPS-NH2) [Compound 28] | 37.62
His-Aib-Gln-Gly-Thr-Phe-Thr-Ser-Asp-Lys(PEG2-PEG2-γGlu-CO(CH2)16CH3)-Ser-Lys-Tyr-Leu-Asp-Glu-Arg-Arg-Ala-Gln-Asp-Phe-Val-Gln-Trp-Leu-Leu-Asp-Gly-Gly-Pro-Ser-Ser-Gly-Ala-Pro-Pro-Pro-Ser-NH2 (H[Aib]QGTFTSDK([PEG2′-PEG2′-γGlu-Stearoyl])SKYLDERRAQDFVQWLLDGGPSSGAPPPS-NH2) [Compound 14] | 42.80
His-(D-Ser)-Gln-Gly-Thr-Phe-Thr-Ser-Asp-Tyr-Ser-Lys-Tyr-Leu-Asp-Ser-Lys(PEG2-PEG2-γGlu-CO(CH2)16CH3)-Ala-Ala-His-Asp-Phe-Val-Glu-Trp-Leu-Leu-Asn-Gly-Gly-Pro-Ser-Ser-Gly-Aln-Pro-Pro-Pro-Ser-NH2 (H[dS]QGTFTSDYSKYLDSK([PEG2′-PEG2′-γGlu-Stearoyl])AAHDFVEWLLNGGPSSGAPPPS-NH2; also: position 35: name writes Aln, letters give A) [Compound 22] | 40.56
His-(D-Ser)-Gln-Gly-Thr-Phe-Thr-Ser-Asp-Lys(PEG2-PEG2-CO(CH2)16CO2H)-Ser-Lys-Tyr-Leu-Asp-Aib-Arg-Arg-Ala-Gln-Asp-Phe-Val-Gln-Trp-Leu-Met-Asn-Thr-Gly-Gly-Pro-Ser-Ser-Gly-Ala-Pro-Pro-Pro-Ser-NH2 (H[dS]QGTFTSDK([PEG2′-PEG2′-C18 diacid])SKYLD[Aib]RRAQDFVQWLMNTGGPSSGAPPPS-NH2) [Compound 30] | 55.53
His-(D-Ser)-Gln-Gly-Thr-Phe-Thr-Ser-Asp-Tyr-Ser-Lys-Tyr-Leu-Asp-Glu-Lys-Ala-Ala-Lys(PEG2-PEG2-γGlu-CO(CH2)14CO2H)-Glu-Phe-Ile-Glu-Trp-Leu-Leu-Asn-Gly-Gly-Pro-Ser-Ser-Gly-Ala-Pro-Pro-Pro-Ser-NH2 (H[dS]QGTFTSDYSKYLDEKAAK([PEG2′-PEG2′-γGlu-C16 diacid])EFIEWLLNGGPSSGAPPPS-NH2) [Compound 27] | 32.34
His-(D-Ser)-Gln-Gly-Thr-Phe-Thr-Ser-Asp-Tyr-Ser-Lys-Tyr-Leu-Asp-Glu-Lys-Ala-Ala-Lys(PEG2-PEG2-γGlu-CO(CH2)14CH3)-Glu-Phe-Ile-Glu-Trp-Leu-Leu-Arg-Ala-NH2 (H[dS]QGTFTSDYSKYLDEKAAK([PEG2′-PEG2′-γGlu-Palmitoyl])EFIEWLLRA-NH2) [Compound 23] | 45.91
His-(D-Ser)-Gln-Gly-Thr-Phe-Thr-Ser-Asp-Tyr-Ser-Lys-Tyr-Leu-Asp-Ser-Lys(PEG2-PEG2-γGlu-CO(CH2)16CO2H)-Ala-Ala-His-Asp-Phe-Val-Glu-Trp-Leu-Leu-Asn-Gly-Gly-Pro-Ser-Ser-Gly-Ala-Pro-Pro-Pro-Ser-NH2 (H[dS]QGTFTSDYSKYLDSK([PEG2′-PEG2′-γGlu-C18 diacid])AAHDFVEWLLNGGPSSGAPPPS-NH2) [Compound 21] | 37.66
His-(D-Ser)-Gln-Gly-Thr-Phe-Thr-Ser-Asp-Tyr-Ser-Lys(PEG2-PEG2-γGlu-CO(CH2)14CH3)-Lys-Leu-Asp-Aib-Arg-Arg-Ala-Gln-Asp-Phe-Val-Gln-Trp-Leu-Met-Asn-Thr-Gly-Gly-Pro-Ser-Ser-Gly-Ala-Pro-Pro-Pro-Ser-NH2 (H[dS]QGTFTSDYSK([PEG2′-PEG2′-γGlu-Palmitoyl])KLD[Aib]RRAQDFVQWLMNTGGPSSGAPPPS-NH2) [Compound 1] | 63.5
His-Aib-Gln-Gly-Thr-Phe-Thr-Ser-Asp-Lys(PEG2-PEG2-γGlu-CO(CH2)16CH3)-Ser-Lys-Tyr-Leu-Asp-Aib-Arg-Arg-Ala-Gln-Asp-Phe-Val-Gln-Trp-Leu-Leu-Asp-Gly-Gly-Pro-Ser-Ser-Gly-Ala-Pro-Pro-Pro-Ser-NH2 (H[Aib]QGTFTSDK([PEG2′-PEG2′-γGlu-Stearoyl])SKYLD[Aib]RRAQDFVQWLLDGGPSSGAPPPS-NH2) [Compound 12] | 36.99
His-(D-Ser)-Gln-Gly-Thr-Phe-Thr-Ser-Asp-Tyr-Ser-Lys(PEG2-PEG2-CO(CH2)14CH3)-Lys-Leu-Asp-Aib-Arg-Arg-Ala-Gln-Asp-Phe-Val-Gln-Trp-Leu-Met-Asn-Thr-Gly-Gly-Pro-Ser-Ser-Gly-Ala-Pro-Pro-Pro-Ser-NH2 (H[dS]QGTFTSDYSK([PEG2′-PEG2′-Palmitoyl])KLD[Aib]RRAQDFVQWLMNTGGPSSGAPPPS-NH2) [Compound 9] | 41.86
His-Aib-Gln-Gly-Thr-Phe-Thr-Ser-Asp-Lys(PEG2-PEG2-γGlu-CO(CH2)14CO2H)-Ser-Lys-Tyr-Leu-Asp-Glu-Arg-Arg-Ala-Gln-Asp-Phe-Val-Gln-Trp-Leu-Leu-Asp-Gly-Gly-Pro-Ser-Ser-Gly-Ala-Pro-Pro-Pro-Ser-NH2 (H[Aib]QGTFTSDK([PEG2′-PEG2′-γGlu-C16 diacid])SKYLDERRAQDFVQWLLDGGPSSGAPPPS-NH2) [Compound 13] | 37.93
His-(D-Ser)-Gln-Gly-Thr-Phe-Thr-Ser-Asp-Tyr-Ser-Lys(PEG2-PEG2-CO(CH2)16CO2H)-Lys-Leu-Asp-Aib-Arg-Arg-Ala-Gln-Asp-Phe-Val-Gln-Trp-Leu-Met-Asn-Thr-Gly-Gly-Pro-Ser-Ser-Gly-Ala-Pro-Pro-Pro-Ser-NH2 (H[dS]QGTFTSDYSK([PEG2′-PEG2′-C18 diacid])KLD[Aib]RRAQDFVQWLMNTGGPSSGAPPPS-NH2) [Compound 2] | 41.62
His-(D-Ser)-Gln-Gly-Thr-Phe-Thr-Ser-Asp-Tyr-Ser-Lys-Tyr-Leu-Asp-Lys(PEG2-PEG2-γGlu-CO(CH2)16CO2H)-Arg-Arg-Ala-Gln-Asp-Phe-Val-Gln-Trp-Leu-Met-Asn-Thr-Gly-Gly-Pro-Ser-Ser-Gly-Ala-Pro-Pro-Pro-Ser-NH2 (H[dS]QGTFTSDYSKYLDK([PEG2′-PEG2′-γGlu-C18 diacid])RRAQDFVQWLMNTGGPSSGAPPPS-NH2) [Compound 34] | 38.18
His-(D-Ser)-Gln-Gly-Thr-Phe-Thr-Ser-Asp-Tyr-Ser-Lys-Tyr-Leu-Asp-Lys(PEG2-PEG2-CO(CH2)16CO2H)-Arg-Arg-Ala-Gln-Asp-Phe-Val-Gln-Trp-Leu-Nle-Asn-Thr-Gly-Gly-Pro-Ser-Ser-Gly-Ala-Pro-Pro-Pro-Ser-NH2 (H[dS]QGTFTSDYSKYLDK([PEG2′-PEG2′-C18 diacid])RRAQDFVQWL[Nle]NTGGPSSGAPPPS-NH2) [Compound 41] | 42.10
His-(D-Ser)-Gln-Gly-Thr-Phe-Thr-Ser-Asp-Lys(PEG2-PEG2-CO(CH2)14CH3)-Ser-Lys-Tyr-Leu-Asp-Aib-Arg-Arg-Ala-Gln-Asp-Phe-Val-Gln-Trp-Leu-Nle-Asn-Thr-Gly-Gly-Pro-Ser-Ser-Gly-Ala-Pro-Pro-Pro-Ser-NH2 (H[dS]QGTFTSDK([PEG2′-PEG2′-Palmitoyl])SKYLD[Aib]RRAQDFVQWL[Nle]NTGGPSSGAPPPS-NH2) [Compound 45] | 32.22
His-(D-Ser)-Gln-Gly-Thr-Phe-Thr-Ser-Asp-Tyr-Ser-Lys-Tyr-Leu-Asp-Lys(PEG2-PEG2-CO(CH2)16CO2H)-Arg-Arg-Ala-Gla-Asp-Phe-Val-Gln-Trp-Leu-Met-Asn-Thr-Gly-Gly-Pro-Ser-Ser-Gly-Ala-Pro-Pro-Pro-Ser-NH2 (H[dS]QGTFTSDYSKYLDK([PEG2′-PEG2′-C18 diacid])RRAQDFVQWLMNTGGPSSGAPPPS-NH2; also: position 20: name writes Gla, letters give Q) [Compound 35] | 51.28
His-(D-Ser)-Gln-Gly-Thr-Phe-Thr-Ser-Asp-Lys(PEG)-PEG2-γGlu-CO(CH2)16CO2H)-Ser-Lys-Tyr-Leu-Asp-Aib-Arg-Arg-Ala-Gln-Asp-Phe-Val-Gln-Trp-Leu-Met-Asn-Thr-Gly-Gly-Pro-Ser-Ser-Gly-Ala-Pro-Pro-Pro-Ser-NH2 (H[dS]QGTFTSDKSKYLD[Aib]RRAQDFVQWLMNTGGPSSGAPPPS-NH2; not fully specified (residue 10); also: first PEG unit on Lys10 of unstated size) [Compound 5] | 36.04
His-(D-Ser)-Gln-Gly-Thr-Phe-Thr-Ser-Asp-Lys(PEG2-PEG2-γGlu-CO(CH2)14CH3)-Ser-Lys-Tyr-Leu-Asp-Aib-Arg-Arg-Ala-Gln-Asp-Phe-Val-Gln-Trp-Leu-Leu-Asn-Thr-Gly-Gly-Pro-Ser-Ser-Gly-Ala-Pro-Pro-Pro-Ser-NH2 (H[dS]QGTFTSDK([PEG2′-PEG2′-γGlu-Palmitoyl])SKYLD[Aib]RRAQDFVQWLLNTGGPSSGAPPPS-NH2) [Compound 43] | 42.34
His-(D-Ser)-Gln-Gly-Thr-Phe-Thr-Ser-Asp-Lys(PEG2-PEG2-CO(CH2)14CH3)-Ser-Lys-Tyr-Leu-Asp-Aib-Arg-Arg-Ala-Gln-Asp-Phe-Val-Gln-Trp-Leu-Met-Asn-Thr-Gly-Gly-Pro-Ser-Ser-Gly-Ala-Pro-Pro-Pro-Ser-NH2 (H[dS]QGTFTSDK([PEG2′-PEG2′-Palmitoyl])SKYLD[Aib]RRAQDFVQWLMNTGGPSSGAPPPS-NH2) [Compound 31] | 36.89
